# Experimental data as given in article PMC11490238 (Drug Design, Development and Therapy, 2024).
# pKi: −log10 of the molar value.
# Columns and labels:
# CYP1A2 [1] = molecular target: T1, CYP1A2 (Homo sapiens, UniProt P05177); conditions: calculated from ISEF (0.69) and CLint,rhCYP
# T1 sequence (P05177 1-516): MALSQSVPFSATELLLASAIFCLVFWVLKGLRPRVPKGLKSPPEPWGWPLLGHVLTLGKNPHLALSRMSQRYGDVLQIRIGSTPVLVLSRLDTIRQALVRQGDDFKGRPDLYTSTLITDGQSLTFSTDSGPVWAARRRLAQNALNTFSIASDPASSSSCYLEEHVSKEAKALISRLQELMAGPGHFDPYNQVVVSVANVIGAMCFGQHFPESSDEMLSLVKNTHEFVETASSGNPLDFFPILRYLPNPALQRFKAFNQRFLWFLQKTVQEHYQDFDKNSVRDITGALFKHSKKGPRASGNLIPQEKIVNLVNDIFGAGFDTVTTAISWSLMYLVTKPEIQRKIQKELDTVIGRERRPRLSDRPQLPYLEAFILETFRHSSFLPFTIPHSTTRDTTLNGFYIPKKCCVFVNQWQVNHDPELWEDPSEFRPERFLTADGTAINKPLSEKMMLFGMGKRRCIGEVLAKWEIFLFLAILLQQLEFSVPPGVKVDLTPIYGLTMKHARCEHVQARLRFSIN
# in vitro = conditions: human, microsomes, pH 7.4
# CYP3A5 [2] = molecular target: T2, CYP3A5 (Homo sapiens, UniProt P20815); conditions: calculated from ISEF (0.43) and CLint,rhCYP
# [3] = Chinese cancer volunteers; cited from earlier work
# P-gp = conditions: previous studies and drug package inserts; cited from earlier work
# human recombinant CYP3A4 = human recombinant CYP3A4 (Homo sapiens, UniProt P08684); conditions: calculated from ISEF (0.49) and CLint,rhCYP
# [4] = test system: anlotinib metabolism in HLM; experiment: in vitro; conditions: human, pH 7.4
# CYP3A5 [5] = molecular target: T2, CYP3A5; experiment: biochemical
# HLM = conditions: anlotinib as substrate in HLMs
# CYP1A2 [6] = molecular target: T1, CYP1A2; experiment: biochemical
# [7] = victim erlotinib, cancer subjects; cited from earlier work
# T2 sequence (P20815 whole entry): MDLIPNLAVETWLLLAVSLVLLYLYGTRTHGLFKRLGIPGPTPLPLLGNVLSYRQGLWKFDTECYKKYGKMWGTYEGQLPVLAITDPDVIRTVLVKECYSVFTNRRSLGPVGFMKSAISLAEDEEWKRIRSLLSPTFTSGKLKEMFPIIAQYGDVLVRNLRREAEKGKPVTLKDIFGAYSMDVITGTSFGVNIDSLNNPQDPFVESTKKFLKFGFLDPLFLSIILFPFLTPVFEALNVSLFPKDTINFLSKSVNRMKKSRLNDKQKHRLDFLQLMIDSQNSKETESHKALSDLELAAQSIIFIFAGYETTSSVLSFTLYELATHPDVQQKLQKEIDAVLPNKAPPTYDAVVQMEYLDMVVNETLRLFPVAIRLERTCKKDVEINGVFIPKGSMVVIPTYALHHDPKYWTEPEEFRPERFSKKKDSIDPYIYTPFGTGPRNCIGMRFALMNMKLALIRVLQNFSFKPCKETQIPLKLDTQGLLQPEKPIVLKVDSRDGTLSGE
# Chain of human recombinant CYP3A4 (P08684 whole entry): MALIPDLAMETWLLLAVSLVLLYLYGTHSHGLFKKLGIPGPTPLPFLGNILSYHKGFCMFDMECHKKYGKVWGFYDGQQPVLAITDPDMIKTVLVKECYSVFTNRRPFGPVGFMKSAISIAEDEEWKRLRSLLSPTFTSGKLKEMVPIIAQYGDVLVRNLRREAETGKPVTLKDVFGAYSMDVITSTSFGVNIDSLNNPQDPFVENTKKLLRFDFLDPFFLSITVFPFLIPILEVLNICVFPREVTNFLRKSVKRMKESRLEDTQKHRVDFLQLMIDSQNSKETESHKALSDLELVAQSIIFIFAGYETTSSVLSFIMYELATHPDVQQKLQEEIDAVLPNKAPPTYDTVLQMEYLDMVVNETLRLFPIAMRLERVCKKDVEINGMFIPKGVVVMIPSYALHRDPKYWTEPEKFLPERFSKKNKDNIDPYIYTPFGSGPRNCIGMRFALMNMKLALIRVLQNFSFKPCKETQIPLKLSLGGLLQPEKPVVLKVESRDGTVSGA
smiles,measurement,setting,value
COc1cc2c(Oc3ccc4[nH]c(C)cc4c3F)ccnc2cc1OCC1(N)CC1 [Anlotinib],"fm, share of anlotinib metabolized by CYP1A2",CYP1A2 [1],35%
same,microsomal CLint,in vitro,18 µL/min/mg
same,"fm, share of anlotinib metabolized by CYP3A5",CYP3A5 [2],29%
same,CLpo,[3],11.014 L/h
same,P-gp substrate characteristics,P-gp,non-substrate
same,"fm, share of anlotinib metabolized by CYP3A4",human recombinant CYP3A4,35%
CC[C@H]1OC(=O)[C@H](C)[C@@H](O[C@H]2C[C@@](C)(OC)[C@@H](O)[C@H](C)O2)[C@H](C)[C@@H](O[C@@H]2O[C@H](C)C[C@H](N(C)C)[C@H]2O)[C@](C)(OC)C[C@@H](C)C(=O)[C@H](C)[C@@H](O)[C@]1(C)O [clarithromycin],pKi,[4],5.52
same,pKi,CYP3A5 [5],5.16
same,Inhibition mechanism (Lineweaver-Burk plots),HLM,mixed inhibitors
CC(=O)N1CCN(c2ccc(OCC3COC(Cn4ccnc4)(c4ccc(Cl)cc4Cl)O3)cc2)CC1 (stereo not drawn) [ketoconazole],Inhibition mechanism (Lineweaver-Burk plots),HLM,mixed inhibitors
C[C@H]1COc2c(N3CCN(C)CC3)c(F)cc3c(=O)c(C(=O)O)cn1c23 [levofloxacin],pKi,[4],5.31
same,Inhibition mechanism (Lineweaver-Burk plots),HLM,mixed inhibitors
same,pKi,CYP1A2 [6],5.33
CO[C@H]1/C=C/O[C@@]2(C)Oc3c(C)c(O)c4c(O)c(c(/C=N/N5CCN(C)CC5)c(O)c4c3C2=O)NC(=O)/C(C)=C\C=C\[C@H](C)[C@H](O)[C@@H](C)[C@@H](O)[C@@H](C)[C@H](OC(C)=O)[C@@H]1C [rifampicin],AUC0–∞ of erlotinib reduced to (fold) by the labelled perpetrator,[7],0.33 fold
same,Cmax of erlotinib reduced to (fold) by the labelled perpetrator,[7],0.71 fold
